Test results reported in patent US10787452B2 (Vertex Pharmaceuticals Incorporated, priority 2012, dated 2020).

Test system: HCT116 colorectal cancer cells
Test: Cisplatin sensitization assay (96 h cell viability MTS);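 note: compound concentration needed to lower the Cisplatin-alone IC50 by a set fold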
Format: cell-based
Details: 96 h MTS, compound plus Cisplatin
How it was run: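 HCT116 cells were co-treated with compound and cisplatin, each in 2-fold serial dilutions from a 10 μM top final concentration, as a full matrix. After 96 h at 37 °C, 5% CO2, viability was read by MTS following a 1 h incubation with reagent.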

Compound	Cisplatin Sensitization Assay
CC(C)(C)N1CCN(c2ccncc2NC(=O)c2c(N)nn3cc(Cl)cnc23)CC1 [I-N-34, 2-amino-N-(4-(4-(tert-butyl)piperazin-1-yl)pyridin-3-yl)-6-chloropyrazolo[1,5-a]pyrimidine-3-carboxamide]	++ (Compounds with a Cisplatin sensitization value >0.02 μM but <0.2 μM are marked with “++.”)
CN(C)[C@H]1CCN(c2ccncc2NC(=O)c2c(N)nn3cc(Cl)cnc23)C[C@@H]1O [I-N-35, 2-amino-6-chloro-N-(4-((3S,4S)-4-(dimethylamino)-3-hydroxypiperidin-1-yl)pyridin-3-yl)pyrazolo[1,5-a]pyrimidine-3-carboxamide]	+ (Compounds with a Cisplatin sensitization value >0.2 μM but <5 μM are marked with “+.”)
CN(C)CC1(O)CCN(c2ccncc2NC(=O)c2c(N)nn3cc(Cl)cnc23)CC1 [I-N-36, 2-amino-6-chloro-N-(4-(4-((dimethylamino)methyl)-4-hydroxypiperidin-1-yl)pyridin-3-yl)pyrazolo[1,5-a]pyrimidine-3-carboxamide]	++ (Compounds with a Cisplatin sensitization value >0.02 μM but <0.2 μM are marked with “++.”)
CN(C)C1CCN(c2ccncc2NC(=O)c2c(N)nn3cc(Cl)cnc23)CC1 [I-N-37, 2-amino-6-chloro-N-(4-(4-(dimethylamino)piperidin-1-yl)pyridin-3-yl)pyrazolo[1,5-a]pyrimidine-3-carboxamide]	++ (Compounds with a Cisplatin sensitization value >0.02 μM but <0.2 μM are marked with “++.”)
Nc1nn2cc(F)cnc2c1C(=O)Nc1cncc(Cl)c1N1CCN2CCN(C3COC3)CC2C1 (centres unmarked) [I-N-38, 2-amino-N-(5-chloro-4-(8-(oxetan-3-yl)hexahydro-1H-pyrazino[1,2-a]pyrazin-2(6H)-yl)pyridin-3-yl)-6-fluoropyrazolo[1,5-a]pyrimidine-3-carboxamide]	++ (Compounds with a Cisplatin sensitization value >0.02 μM but <0.2 μM are marked with “++.”)
CC(C)N1CCN(c2ccncc2NC(=O)c2c(N)nn3cc(Cl)cnc23)CC1 [I-N-39, 2-amino-6-chloro-N-(4-(4-isopropylpiperazin-1-yl)pyridin-3-yl)pyrazolo[1,5-a]pyrimidine-3-carboxamide]	++ (Compounds with a Cisplatin sensitization value >0.02 μM but <0.2 μM are marked with “++.”)
CN(C)C1CCCN(c2ccncc2NC(=O)c2c(N)nn3cc(Cl)cnc23)C1 (centres unmarked) [I-N-40, 2-amino-6-chloro-N-(4-(3-(dimethylamino)piperidin-1-yl)pyridin-3-yl)pyrazolo[1,5-a]pyrimidine-3-carboxamide]	++ (Compounds with a Cisplatin sensitization value >0.02 μM but <0.2 μM are marked with “++.”)
CN1CCN(c2c(Cl)cncc2NC(=O)c2c(N)nn3cc(Cl)cnc23)CC1 [I-N-41, 2-amino-6-chloro-N-(5-chloro-4-(4-methylpiperazin-1-yl)pyridin-3-yl)pyrazolo[1,5-a]pyrimidine-3-carboxamide]	+++ (Compounds with a Cisplatin sensitization value of <0.02 μM are marked with “+++.”)
CN1CCCN(c2ccncc2NC(=O)c2c(N)nn3cc(Cl)cnc23)CC1 [I-N-43, 2-amino-6-chloro-N-(4-(4-methyl-1,4-diazepan-1-yl)pyridin-3-yl)pyrazolo[1,5-a]pyrimidine-3-carboxamide]	++ (Compounds with a Cisplatin sensitization value >0.02 μM but <0.2 μM are marked with “++.”)
Nc1nn2cc(Cl)cnc2c1C(=O)Nc1cnccc1N1CCn2ccnc2C1 [I-N-44, 2-amino-6-chloro-N-(4-(5,6-dihydroimidazo[1,2-a]pyrazin-7(8H)-yl)pyridin-3-yl)pyrazolo[1,5-a]pyrimidine-3-carboxamide]	++ (Compounds with a Cisplatin sensitization value >0.02 μM but <0.2 μM are marked with “++.”)
CN(C)CC1CCN(c2ccncc2NC(=O)c2c(N)nn3cc(Cl)cnc23)CC1 [I-N-45, 2-amino-6-chloro-N-(4-(4-((dimethylamino)methyl)piperidin-1-yl)pyridin-3-yl)pyrazolo[1,5-a]pyrimidine-3-carboxamide]	++ (Compounds with a Cisplatin sensitization value >0.02 μM but <0.2 μM are marked with “++.”)
COC1(CN(C)C)CCN(c2ccncc2NC(=O)c2c(N)nn3cc(Cl)cnc23)CC1 [I-N-46, 2-amino-6-chloro-N-(4-(4-((dimethylamino)methyl)-4-methoxypiperidin-1-yl)pyridin-3-yl)pyrazolo[1,5-a]pyrimidine-3-carboxamide]	+++ (Compounds with a Cisplatin sensitization value of <0.02 μM are marked with “+++.”)
COCC1CN(c2ccncc2NC(=O)c2c(N)nn3cc(Cl)cnc23)CCN1C (centres unmarked) [I-N-47, 2-amino-6-chloro-N-(4-(3-(methoxymethyl)-4-methylpiperazin-1-yl)pyridin-3-yl)pyrazolo[1,5-a]pyrimidine-3-carboxamide]	++ (Compounds with a Cisplatin sensitization value >0.02 μM but <0.2 μM are marked with “++.”)
Nc1nn2cc(Cl)cnc2c1C(=O)Nc1cnccc1N1CCN(C2CCC2)CC1 [I-N-48, 2-amino-6-chloro-N-(4-(4-cyclobutylpiperazin-1-yl)pyridin-3-yl)pyrazolo[1,5-a]pyrimidine-3-carboxamide]	++ (Compounds with a Cisplatin sensitization value >0.02 μM but <0.2 μM are marked with “++.”)
CN(C)CCN1CCN(c2ccncc2NC(=O)c2c(N)nn3cc(Cl)cnc23)CC1 [I-N-49, 2-amino-6-chloro-N-(4-(4-(2-(dimethylamino)ethyl)piperazin-1-yl)pyridin-3-yl)pyrazolo[1,5-a]pyrimidine-3-carboxamide]	+++ (Compounds with a Cisplatin sensitization value of <0.02 μM are marked with “+++.”)
CN1CCN(c2cc(N)ncc2NC(=O)c2c(N)nn3cc(Cl)cnc23)CC1 [I-N-50, 2-amino-N-(6-amino-4-(4-methylpiperazin-1-yl)pyridin-3-yl)-6-chloropyrazolo[1,5-a]pyrimidine-3-carboxamide]	+ (Compounds with a Cisplatin sensitization value >0.2 μM but <5 μM are marked with “+.”)
CN1CCN(c2cc(Cl)ncc2NC(=O)c2c(N)nn3cc(Cl)cnc23)CC1 [I-N-52, 2-amino-6-chloro-N-(6-chloro-4-(4-methylpiperazin-1-yl)pyridin-3-yl)pyrazolo[1,5-a]pyrimidine-3-carboxamide]	++ (Compounds with a Cisplatin sensitization value >0.02 μM but <0.2 μM are marked with “++.”)
CN1CCN(c2ccncc2NC(=O)c2c(N)nn3cc(Cl)cnc23)CC1(C)C [I-N-53, 2-amino-6-chloro-N-(4-(3,3,4-trimethylpiperazin-1-yl)pyridin-3-yl)pyrazolo[1,5-a]pyrimidine-3-carboxamide]	++ (Compounds with a Cisplatin sensitization value >0.02 μM but <0.2 μM are marked with “++.”)
CC1CN(c2ccncc2NC(=O)c2c(N)nn3cc(Cl)cnc23)CCN1C (centres unmarked) [I-N-54, 2-amino-6-chloro-N-(4-(3,4-dimethylpiperazin-1-yl)pyridin-3-yl)pyrazolo[1,5-a]pyrimidine-3-carboxamide]	+++ (Compounds with a Cisplatin sensitization value of <0.02 μM are marked with “+++.”)
Nc1nn2cc(Cl)cnc2c1C(=O)Nc1cnccc1N1CCCC(N)C1 (centres unmarked) [I-N-55, 2-amino-N-(4-(3-aminopiperidin-1-yl)pyridin-3-yl)-6-chloropyrazolo[1,5-a]pyrimidine-3-carboxamide]	++ (Compounds with a Cisplatin sensitization value >0.02 μM but <0.2 μM are marked with “++.”)
